In PubChem BioAssay AID1918938 (Molecular Pharmacology Branch, DTP, NCI, 2023):
pIC50: −log10 of the molar value. Where “and” joins values, the source holds several entries; their conditions need not be identical. Equal entries are not always repeated.

System: 556581-035-R-J1-PDC complex spheroid viability
Assay: Anticancer human tumor 556581-035-R-J1-PDC patient-derived ovarian carcinoma cell line growth inhibition
Conditions: for viability, T/C: stronger effect = lower value
Description: Multicellular complex tumor spheroid response to LSD1 Inhibitor Iadademstat in combination with a variety of drugs and investigational agents in selected tumor cell lines
The current study was undertaken to assess response to LSD1 inhibitors in combination with standard-of-care drugs and investigational agents in solid tumor complex spheroid models as well as in the K-562 leukemia. Complex spheroids include a stromal component modeled by human endothelial cells (HUVEC) and fibroblasts modeled by human mesenchymal stem cells (MSCs). The concentration ranges selected for each drug and investigational agent were based upon clinically achievable concentrations if the clinical Cmax of the agent was known.
Compounds. The drugs and investigational agents used in this study are listed on Table 1. All of the agents used, including staurosporine (NSC755774) and gemcitabine (NSC613327), were obtained from the Developmental Therapeutics Program, NCI. FDA-approved anticancer drugs are available from the NCI at http://dtp.nci.nih.gov/branches/dscb/oncology_drugset_explanation.html. Drugs and investigational agents were >95% pure by proton nuclear magnetic resonance (NMR) and liquid chromatography/mass spectrometry (LC/MS). Stock solutions were prepared at 400x in DMSO, stored at -70 degrees C, and diluted in fresh medium prior to their use. The final concentration of DMSO in cell culture wells never exceeded 0.25% (v/v). The FDA-approved anticancer drug set is available from the Developmental Therapeutics Program at https://dtp.cancer.gov/organization/dscb/obtaining/available_plates.htm. All drugs and investigational agents were tested over a range starting from a high concentration at or near the clinical Cmax and decreasing in half-log increments. If the clinical Cmax for an agent had not been determined, the highest concentration tested was 10 microM.
Cell Lines. The patient-derived cancer cell (PDC) lines: 292921-168-R-J2-PDC, K24384-001-R-PDC, and 521955-158-R2-J5-PDC pancreatic carcinomas, 556581-035-R-J1 ovarian carcinoma, 324938-238-R-J1-PDC, 855422-203-R-J1-PDC and 883617-216-R-J1-PDC urothelial bladder carcinomas, 743489-274-T-PDC renal cell carcinoma, 138582-R-J1 Merkel cell tumor, K60290-347-R-J1 and K57222-313-R-J1-PDC glioblastomas, 653999-131-R-J2-PDC, LG0703-F948-PDC, and 349418-098-R-PDC non-small cell lung carcinomas, 885512-296-R-J2-PDC, 171881-019-R-J1-PDC breast carcinomas and 186277-243-T-J2-PDC and 233499-124-R-J2-PDC colon carcinomas were obtained from the NCI Patient-Derived Models Repository (PDMR, https://pdmr.cancer.gov). The established cell lines NCI/ADR-RES (RRID:CVCL_14520 and OVCAR-5 (RRID:CVCL_1628) ovarian carcinomas, 786-O (RRID:CVCL_1051) and A498 (RRID:CVCL_A498) renal cell carcinoma, NCI-H211 (ATCC, cat. CRL-5824; RRID:CVCL_1529), NCI-H196 (ATCC, cat. CRL-5823, RRID:CVCL_1509), SW 1271 (ATCC, cat. CRL-2177, RRID:CVCL_1716) and NCI-H1876 (ATCC, cat. CRL-5902, RRID:CVCL_1503) small cell lung carcinomas, MDA-MB-231 (RRID:CVCL_0062) and MDA-MB-468 (RRID:CVCL_0419)breast carcinomas (10-12). Pooled donor human umbilical vein endothelial cells (HUVEC, Lonza, cat. CC-2519) and human mesenchymal stem cells (hMSC, Lonza, cat. PT-2501) were purchased from Lonza (Walkersville, MD).
Cell Culture. All cells were maintained in an incubator at 37 degrees C and 5% CO2 with 95% humidity. The PDC lines were cultured according to standard operating procedures established by the NCI PDMR (https://pdmr.cancer.gov). Briefly all PDCs were thawed and cultured in Matrigel-coated flasks prepared with a working solution of 1X Ham's F-12 nutrient mix, without supplementation (Invitrogen, Waltham, MA, cat. 11765054), 100 U/mL penicillin-streptomycin (Invitrogen, cat. 15140122), and 2.5% Matrigel (Corning Inc., Corning, NY, cat. 354248) for the first three passages. […]
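Further: spheroids exposed to agents for seven days.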
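Wherever viability, T/C is given: 100% = DMSO vehicle control wells.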

| pIC50 (curve of compound) | Structure (SMILES) | viability, T/C (compound 0.00316 µM) | viability, T/C (compound 0.01 µM) | viability, T/C (compound 0.0316 µM) | viability, T/C (compound 0.1 µM) | viability, T/C (compound 0.316 µM) | viability, T/C (compound 1 µM) | viability, T/C (compound 0.00949 µM) | viability, T/C (compound 0.03 µM) | viability, T/C (compound 0.0949 µM) | viability, T/C (compound 0.3 µM) | also measured |
| --- | --- | --- | --- | --- | --- | --- | --- | --- | --- | --- | --- | --- |
| > 9.50 | CC(C)CC(NC(=O)C(Cc1ccccc1)NC(=O)c1cnccn1)B(O)O (stereo not given) | 1.04% and 0.46% | 0.22% and 0.28% | 0.85% and 0.24% | 0.44% and 0.39% |  |  |  |  |  |  | viability, T/C (compound 0.000316 µM): 7.73% and 2.05%; viability, T/C (compound 0.001 µM): 0.26% and 0.43% |
| 8.39 and 8.54 | CC(C)CC(NC(=O)CNC(=O)c1cc(Cl)ccc1Cl)B1OC(=O)CC(CC(=O)O)(C(=O)O)O1 (stereo not given) | 63.3% and 46% | 2.06% and 2.7% | 0.74% and 1.23% | 0.66% and 0.61% |  |  |  |  |  |  | viability, T/C (compound 0.000316 µM): 99.8% and 102%; viability, T/C (compound 0.001 µM): 98.2% and 102% |
| < 5.00 | CC(C)c1c(-c2ccccc2)nc2c(C#N)c[nH]n2c1=O |  |  | 93.8% and 102% | 105% and 100% | 107% | 91.4% and 101% |  |  |  |  | viability, T/C (compound 3.16 µM): 75.4% and 90.9%; viability, T/C (compound 10 µM): 72.7% and 71.9% |
| 5.35 and 5.30 | CC1(C)CCC(CN2CCN(c3ccc(C(=O)NS(=O)(=O)c4ccc(NCC5CCOCC5)c([N+](=O)[O-])c4)c(Oc4cnc5[nH]ccc5c4)c3)CC2)=C(c2ccc(Cl)cc2)C1 |  |  | 97.5% and 84.5% | 95.1% and 89.4% | 85.2% and 79.3% | 81% and 90.1% |  |  |  |  | viability, T/C (compound 3.16 µM): 68.8% and 79.1%; viability, T/C (compound 10 µM): 13.5% and 7.08% |
| 7.28 and 8.07 | CC1COCCN1c1cc(-c2ccnn2C)c2ccnc(-c3ccn[nH]3)c2n1 (stereo not given) | 70% and 55.8% | 65.8% and 55.1% | 51.8% and 34.4% | 42.8% and 25.6% | 36.3% and 26.9% | 14.7% and 9.75% |  |  |  |  |  |
| < 5.00 | CC1COCCN1c1cc(C2(S(C)(=N)=O)CC2)nc(-c2ccnc3[nH]ccc23)n1 (stereo not given) |  |  | 107% | 110% and 94.2% | 95.2% and 97.8% | 79.8% and 74.4% |  |  |  |  | viability, T/C (compound 3.16 µM): 68.2% and 69.1%; viability, T/C (compound 10 µM): 62.3% and 52.5% |
| 5.70 and 6.05 | CCN(c1cc(-c2ccc(CN3CCOCC3)cc2)cc(C(=O)NCc2c(C)cc(C)[nH]c2=O)c1C)C1CCOCC1 |  |  |  |  |  |  | 101% and 102% | 105% and 88.1% | 87.8% and 88.1% | 81.4% and 79.2% | viability, T/C (compound 0.949 µM): 60.2% and 46.9%; viability, T/C (compound 3 µM): 44.3% and 24.2% |
| 7.82 and 8.21 | CC[C@@]1(O)C(=O)OCc2c1cc1n(c2=O)Cc2cc3c(CN(C)C)c(O)ccc3nc2-1 | 78.7% and 73.8% | 57.1% and 32.2% | 35.8% and 14% | 10% and 7.12% |  |  |  |  |  |  | viability, T/C (compound 0.000316 µM): 95.5% and 101%; viability, T/C (compound 0.001 µM): 96.8% and 101% |
| > 9.02 | CCc1c2c(nc3ccc(O)cc13)-c1cc3c(c(=O)n1C2)COC(=O)[C@]3(O)CC |  |  |  |  |  |  | 2.19% and 1.59% | 0.61% and 0.44% | 0.29% and 0.42% | 0.34% and 0.39% | viability, T/C (compound 0.000949 µM): 17.5% and 12%; viability, T/C (compound 0.003 µM): 11.2% and 9.45% |
| 6.21 and 6.75 | COc1cc(C2c3cc4c(cc3C(OC3OC5COC(C)OC5C(O)C3O)C3COC(=O)C23)OCO4)cc(OC)c1O (stereo not given) |  |  |  |  |  |  | 89% and 94.3% | 82.8% and 76.5% | 70% and 56.9% | 65.7% and 40.6% | viability, T/C (compound 0.949 µM): 41.2% and 33.2%; viability, T/C (compound 3 µM): 23.5% and 15.7% |
|  | COc1cc(Nc2ncc3c(n2)-c2ccc(Cl)cc2C(c2c(F)cccc2OC)=NC3)ccc1C(=O)O | 68.5% and 68.6% | 67.9% and 49.6% | 78.5% and 43.2% | 60.9% and 45.6% | 51.1% and 41.2% | 39.2% and 29.9% |  |  |  |  |  |
| 6.00 and 5.97 | COc1ccc([C@@H](O)c2cc(-c3ncnc4cc(N5CCOCC5)ccc34)c(F)cc2Cl)nn1 |  |  | 91.9% and 89.7% | 83.5% and 83.2% | 66.5% and 63.4% | 50.3% and 48.7% |  |  |  |  | viability, T/C (compound 3.16 µM): 36.8% and 42.1%; viability, T/C (compound 10 µM): 29.6% and 27.5% |
| < 7.00 | Cn1ncnc1C1c2n[nH]c(=O)c3cc(F)cc(c23)NC1c1ccc(F)cc1 (stereo not given) | 105% and 86.9% | 108% and 86.5% | 93.6% and 103% | 98.9% and 91.4% |  |  |  |  |  |  | viability, T/C (compound 0.000316 µM): 102% and 114%; viability, T/C (compound 0.001 µM): 118% and 97.2% |
|  | NC1CC1c1ccc(-c2cccc(O)c2)cc1 (stereo not given) |  |  |  | 91.5% [middle of 4 runs] |  |  |  |  |  |  | viability, T/C (compound 3.16 µM): 89.2% [middle of 24 runs]; pIC50 (compound alone, run of 02/21/2022): < 5.00 |
|  | NC1CCC(NC2CC2c2ccccc2)CC1 (stereo not given) |  |  |  |  | 85.1% and 84.9% |  |  |  |  |  | pIC50 (compound alone, run of 02/15/2022): < 5.00 |
| < 5.52 and 6.39 | NS(=O)(=O)OCC1CC(n2ccc3c(NC4CCc5ccccc54)ncnc32)CC1O (stereo not given) |  |  |  |  |  |  | 121% and 104% | 122% and 77% | 111% and 74% | 106% and 51.3% | viability, T/C (compound 0.949 µM): 91.9% and 37.8%; viability, T/C (compound 3 µM): 56.7% and 38% |
| 6.88 and 7.01 | Nc1ccccc1NC(=O)c1ccc(CNC(=O)OCc2cccnc2)cc1 |  |  |  |  |  |  | 88.5% and 100% | 82% and 76.7% | 56.3% and 50.2% | 30.6% and 28.9% | viability, T/C (compound 0.949 µM): 13.6% and 7.68%; viability, T/C (compound 3 µM): 1.18% and 0.51% |
| 8.58 and 8.70 | Nc1ccn(C2OC(CO)C(O)C2(F)F)c(=O)n1 (stereo not given) |  |  |  |  |  |  | 36% and 23.9% | 36.7% and 26.2% | 40.7% and 26.8% | 35.3% and 23.3% | viability, T/C (compound 0.000949 µM): 73.7% and 82.5%; viability, T/C (compound 0.003 µM): 48.6% and 31.7% |
| < 6.00 | Nc1ncn(C2CC(O)C(CO)O2)c(=O)n1 (stereo not given) | 98.7% and 115% | 102% and 100% | 108% and 99.9% | 84.2% and 79.4% | 88.6% and 107% | 80.9% and 101% |  |  |  |  |  |
| 6.74 and 7.32 | Nc1ncn(C2CC(O)C(CO)S2)c(=O)n1 (stereo not given) |  |  |  |  |  |  | 94.5% and 81.4% | 75.4% and 63.8% | 56.8% and 32.5% | 45.3% and 17.8% | viability, T/C (compound 0.000949 µM): 92.4% and 104%; viability, T/C (compound 0.003 µM): 110% and 102% |
| 6.95 and 7.16 | O=C(C=Cc1cccc(S(=O)(=O)Nc2ccccc2)c1)NO |  |  |  |  |  |  | 88.8% and 89.7% | 77.9% and 83.8% | 54.2% and 35.2% | 23.9% and 15.3% | viability, T/C (compound 0.949 µM): 1.68% and 0.7%; viability, T/C (compound 3 µM): 0.32% and 3.39% |
| 6.48 and 7.17 | O=C(C=Cn1cnc(-c2cc(C(F)(F)F)cc(C(F)(F)F)c2)n1)NNc1cnccn1 | 84.8% | 82.9% and 87.8% | 83.4% and 74% | 68.8% and 37.2% |  | 15.9% and 3.46% |  |  |  |  |  |
| < 5.00 | O=C(c1cc(Cc2n[nH]c(=O)c3ccccc23)ccc1F)N1CCN(C(=O)C2CC2)CC1 |  |  | 95.3% and 96.8% | 94.3% and 94.5% | 98.2% and 89.4% | 98.1% and 89.3% |  |  |  |  | viability, T/C (compound 3.16 µM): 87.5% and 78.2%; viability, T/C (compound 10 µM): 75.2% and 64.5% |
